The source of these data is article PMC11996864, “A small-molecule inhibitor of BCL10-MALT1 interaction abrogates progression of diffuse large B cell lymphoma” (The Journal of Clinical Investigation, 2025).

The subject of test [1] is IKKα/β phosphorylation in Jurkat T cells. Description: IKKα/β phosphorylation after CD3/CD28 stimulation (MALT1 scaffolding activity). In kind it is cell-based, human. Particulars: for pIKK (normalized): Jurkat, 1 μM; for IKK phosphorylation: result in words. The protocol:
(§1) Western blot analysis of RelB and N4BP1 cleavage was used to test the effect of small molecules on MALT1 protease activity. To this end, 3 million Jurkat T cells were pretreated with compounds for 24 hours in serum-free media, and then 5 μM MG-132 was added for 1 hour before stimulation with CD3/CD28 (Stemcell Technologies, catalog 10971), and lysed in RIPA buffer (Millipore, catalog 20-188) with protease and phosphatase inhibitor cocktail (Pierce, catalog 78446). IKKα/β phosphorylation and IκBα phosphorylation were used as measures of MALT1 scaffolding activity, while ERK1/2 phosphorylation was used as a control. Two million Jurkat T cells were treated with 1 μM M1i-124, 1 μM M1i-124d1, or DMSO in serum-free media for 16 hours, stimulated with CD3/CD28 for 0, 5, 10, or 20 minutes, and then immediately lysed in RIPA buffer with protease and phosphatase inhibitors. For experiments evaluating RelB cleavage and phosphorylation of IκBα in TMD8 cells, cells were treated with compounds for 24 hours in media containing 5% FBS. For RelB Western blot analysis, 5 μM MG-132 (Cell Signaling Technology, catalog 2194s) was added 4 hours before lysis in RIPA lysis buffer with protease/phosphatase inhibitors.

Test [2] has as its target T1, binding of Id1 to immobilized MyoD (Homo sapiens, UniProt P41134).
T1 construct: purchased Proteintech Ag13359 (GST-ID1); Ag13186 (His-MyoD1)
T1 sequence (P41134 1-155): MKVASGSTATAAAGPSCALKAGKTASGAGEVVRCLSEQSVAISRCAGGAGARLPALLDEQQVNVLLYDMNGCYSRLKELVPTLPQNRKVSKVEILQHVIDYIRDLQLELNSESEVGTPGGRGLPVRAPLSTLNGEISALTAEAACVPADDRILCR
Description: MyoD1/ID1 ELISA (specificity control). Particulars: for inhibition of binding of Id1 to immobilized MyoD: result in words. As for the experimental part:
ELISA-based protein-protein interaction assay. On a high-binding 96-well ELISA microplate (Greiner Cat# 655061), 100 ng of His-tagged recombinant human full-length BCL10 protein (Novus Cat# NBP1-99064) or in 100 µl PBS was allowed to adhere overnight at 4°C. The plate was blocked with 5% BSA in PBS for 1 hour at room temperature. After washing twice with PBS-T, a mixture of 100 ng of GST-tagged recombinant human full-length MALT1 protein (Novus Biologicals Cat# H00010892-P01) and compound that was preincubated for 1 hour in 100 μl PBS was added to the plate for 1 hour at room temperature. After washing three times with PBS-T, anti-MALT1 antibody (Cell Signaling Technology, Cat# 2494) in 5% BSA in PBS was added at 1:1000 dilution for 1 hour at room temperature. After washing three times with PBS-T, HRP-conjugated secondary antibody in 5% BSA in PBS was added at 1:5000 dilution for 1 hour at room temperature. After washing three times with PBS-T, 100 µl of 3,3’,5,5’-tetramethylbenzidine (TMB) substrate solution (Thermo Scientific, Cat# 34028) was added for up to 15 minutes, and 100 µl of 2 M sulfuric acid was added to stop the reaction. The plate was read at 450 nm using a spectrophotometer (Molecular Devices SpectraMax i3). The MyoD1/ID ELISA was performed as above except that 100 ng of recombinant human His-tagged MyoD1 (Proteintech, Cat# Ag13186) was plated overnight at 4°C prior to the addition of 100 ng of recombinant human GST-ID1 (Proteintech, Cat# Ag13359) preincubated to with compounds. The anti-GST antibody (clone 26H1, Cell signaling Technology, Cat #2624) was used to detect bound ID1. […]

A further test concerns TMD8 cells. The test can be described thus: IL6 and IL10 mRNA, qRT-PCR. In kind it is cell-based, human. Particulars: TMD8, 1 μM; for IL6 and IL10 mRNA levels: 24 hours, result in words. As for the experimental part:
TMD8 cells were treated with small molecule inhibitors for 24 with cultures conditions described above except that FBS was 5%. OCI-Ly3 were treated with inhibitors in serum free media for 24 hours. Total RNA extraction from cell lines was performed using RNeasy Plus Mini Kit (Qiagen, Cat# 74136). […]
Kit. RNA was transcribed into cDNA using High-Capacity cDNA Reverse Transcription Kit (Applied Biosystems, Cat# 4368814) according to manufacturer’s instructions. RT-PCR was performed using TaqMan Universal PCR Master Mix (Applied Biosystems, Cat# 4304437) and run on a StepOnePlus Real-Time PCR machine (Applied Biosystems). The following probes from ThermoFisher Scientific were used for qRT-PCR: IL2 TaqMan probe Hs00174114, IL6 TaqMan

The test system of the next test is OCI-Ly1 cells. Description: Apoptosis, annexin V/SYTOX Blue flow cytometry. It counts as cell-based, human. As for the experimental part: Cell proliferation, viability, and apoptosis assays. […]
Annexin V Alexa 488
(ThermoFisher Scientific, Cat# A13201) and SYTOX Blue Dead Cell (ThermoFisher Scientific, Cat# S34857) stains were used to detect apoptosis in DLBCL cells after treatment with 1 µM compounds for 8 days in TMD8 and OCI-Ly1 and for 5 days in OCI-Ly3 cells, then analyzed with flow cytometry. The percentages of cells in early and late apoptosis were combined for quantification. For CellTrace Violet, CellTiter-glo, and Annexin V apoptosis assays, cell were cultured in media with 50% of the usual serum. […]
(In general: Flow cytometry measures light scatter and fluorescence of single cells or particles in a stream.)

The subject of test [3] is RelB cleavage in TMD8 cells. Description: Constitutive RelB cleavage, Western blot. It counts as cell-based, human. Particulars: result in words. The protocol: as §1
For orientation: Immunoblotting shows a protein as a band on a membrane.

Values joined by “and” are separate entries in the source; they are usually repeats but may differ in a detail not shown here. Equal values may be shown once.

Take `COc1ccc(CNS(=O)(=O)c2ccc(Cc3ccc(S(=O)(=O)NCc4ccc(OC)cc4)cc3)cc2)cc1` [M1i-124d1]: in test [1] (CD3/CD28 10 min), the “pIKK (normalized)” value was 0.3485 and 0.3518 and 0.2777 and 0.3582 and 0.2291. The IKK phosphorylation result in test [1] was “reduced IKK phosphorylation”. The “MyoD-Id Interaction (% of control)” value in test [2] (0.0975 µM) is 78.8369 % of control and 104.379 % of control and 92.0174 % of control; in test [2] (0.39 µM), 96.3277 % of control and 95.1904 % of control; in test [2] (1.56 µM) it was 85.8349 % of control and 109.633 % of control and 85.4375 % of control; in test [2] (6.25 µM), 108.475 % of control and 92.4516 % of control; in test [2] (12.5 µM), 119.401 % of control and 82.5424 % of control and 93.487 % of control; in test [2] (25 µM), 109.677 % of control and 97.6271 % of control and 64.0281 % of control. The “MyoD-Id Interaction (% of control)” value in test [2] (50 µM) was 120.512 % of control and 93.4463 % of control and 89.2118 % of control; in test [2] (100 µM), 139.841 % of control and 108.927 % of control and 105.812 % of control. The remaining activity at 0.39 µM in test [2] (0.39 µM, read-out: MyoD-Id Interaction (% of control)) was 80.9%. Moreover, the remaining activity at 6.25 µM in test [2] (6.25 µM, read-out: MyoD-Id Interaction (% of control)) is 97.9%. In addition, the “inhibition of binding of Id1 to immobilized MyoD” value in test [2] is “neither M1i-124 nor M1i-124d1 could inhibit”. For the same compound, the “IL-10 mRNA (normalized)” value in the test with TMD8 cells is 0.31 and 0.33 and 0.37 and 0.53 and 0.28 and 0.52. Further, the “IL6 and IL10 mRNA levels” value in the test with TMD8 cells is “significantly decrease IL6 and IL10 mRNA levels”. Moreover, the “Percent Apoptotic cells” value with OCI-Ly1 cells (OCI-Ly1) was 9.94% and 10.39% and 9.5% and 11.36% and 12.09% and 11.72%. In test [3], the “RelB cleavage in TMD8 cells” value was “markedly reduced cleavage of RelB”.
For the compound `O=S(=O)(NCc1ccc2c(c1)OCO2)c1ccc(Cc2ccc(S(=O)(=O)NCc3ccc4c(c3)OCO4)cc2)cc1` [M1i-124], the “pIKK (normalized)” value in test [1] (CD3/CD28 0 min) was 0.4315 and 0.5112 and 0.3213 and 0.2741 and 0.4341. Besides, the IKK phosphorylation result in test [1] is on record as “reduced IKK phosphorylation”. Further, the “MyoD-Id Interaction (% of control)” value in test [2] (0.0975 µM) is 75 % of control and 118.107 % of control and 86.1723 % of control; in test [2] (0.39 µM), 70.9459 % of control and 110.989 % of control and 93.988 % of control; in test [2] (1.56 µM) it was 102.244 % of control and 139.153 % of control and 113.828 % of control; in test [2] (6.25 µM) it was 126.689 % of control and 146.808 % of control and 132.264 % of control; in test [2] (12.5 µM), 149.548 % of control and 131.062 % of control; in test [2] (25 µM) it was 150.772 % of control and 122.599 % of control and 116.032 % of control. Also, the “MyoD-Id Interaction (% of control)” value was 152.034 % of control and 140.013 % of control in test [2] (50 µM); 153.861 % of control and 138.475 % of control and 133.2 % of control in test [2] (100 µM). Moreover, the remaining activity at 12.5 µM in test [2] (12.5 µM, read-out: MyoD-Id Interaction (% of control)) is 145%. Moreover, in test [2] (50 µM, read-out: MyoD-Id Interaction (% of control)), the remaining activity at 50 µM was 158%. Further, the “inhibition of binding of Id1 to immobilized MyoD” value in test [2] was “neither M1i-124 nor M1i-124d1 could inhibit”. In the test on TMD8 cells, the “IL-10 mRNA (normalized)” value was 0.19 and 0.23 and 0.25 and 0.2 and 0.18 and 0.32. Also, in the test with TMD8 cells, the “IL6 and IL10 mRNA levels” value is “significantly decrease IL6 and IL10 mRNA levels”. In addition, in the test with OCI-Ly1 cells (Ly1, individual replicates), the “Annexin (% positivity)” value was 14.6% and 13.45% and 17.85%. Further, in test [3], the “RelB cleavage in TMD8 cells” value is listed as “markedly reduced cleavage of RelB”.
